The values that follow come from patent US12415794B2 (Edgewise Therapeutics, Inc., priority 2018, dated 2025).

The subject of assay [1] is embryos from zebrafish model of DMD. As to conditions: Li and Amer, PLoSONE, 2015; cited from earlier work.
Assay [2] concerns the target skeletal myofibrils (myosin ATPase). Briefly: Skeletal Myofibril ATPase Assay. It is filed as biochemical. In outline:
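Skeletal myofibril ATPase measured by PK-LDH coupled NADH depletion, absorbance 340 nm read every 1.5-2 min over 45 min. Max−min rate normalized to 1% DMSO vehicle as 100%; IC50 from four-parameter logistic fit with bottom ≥0. Cardiac myofibrils used as counter-screen.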

In assay [3] the target is T1, cardiac myofibrils (myosin ATPase).
T1 construct: frozen myofibril pellets obtained from cardiac tissue; from tissue
Kind of assay: Cardiac Myofibril ATPase Assay (counter screen). As to conditions: myofibrils 1.0 mg/mL, KCl omitted. It is filed as biochemical. In outline: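 Frozen cardiac myofibrils at 1.0 mg/mL final, KCl omitted, in a PK-LDH coupled ATPase assay; ADP production tracked as NADH loss by absorbance at 340 nm. Inhibition taken as reduced rate relative to vehicle controls, with IC50 derived.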
For orientation: A counterscreen serves to expose hits that act by an unwanted route or on another target.

Structures are written as SMILES. Bounds are passed on as bounds.

What is called IC50 is the concentration at which inhibition is half-maximal. Higher therefore signals weaker potency.

T1 sequence (P12883 whole entry): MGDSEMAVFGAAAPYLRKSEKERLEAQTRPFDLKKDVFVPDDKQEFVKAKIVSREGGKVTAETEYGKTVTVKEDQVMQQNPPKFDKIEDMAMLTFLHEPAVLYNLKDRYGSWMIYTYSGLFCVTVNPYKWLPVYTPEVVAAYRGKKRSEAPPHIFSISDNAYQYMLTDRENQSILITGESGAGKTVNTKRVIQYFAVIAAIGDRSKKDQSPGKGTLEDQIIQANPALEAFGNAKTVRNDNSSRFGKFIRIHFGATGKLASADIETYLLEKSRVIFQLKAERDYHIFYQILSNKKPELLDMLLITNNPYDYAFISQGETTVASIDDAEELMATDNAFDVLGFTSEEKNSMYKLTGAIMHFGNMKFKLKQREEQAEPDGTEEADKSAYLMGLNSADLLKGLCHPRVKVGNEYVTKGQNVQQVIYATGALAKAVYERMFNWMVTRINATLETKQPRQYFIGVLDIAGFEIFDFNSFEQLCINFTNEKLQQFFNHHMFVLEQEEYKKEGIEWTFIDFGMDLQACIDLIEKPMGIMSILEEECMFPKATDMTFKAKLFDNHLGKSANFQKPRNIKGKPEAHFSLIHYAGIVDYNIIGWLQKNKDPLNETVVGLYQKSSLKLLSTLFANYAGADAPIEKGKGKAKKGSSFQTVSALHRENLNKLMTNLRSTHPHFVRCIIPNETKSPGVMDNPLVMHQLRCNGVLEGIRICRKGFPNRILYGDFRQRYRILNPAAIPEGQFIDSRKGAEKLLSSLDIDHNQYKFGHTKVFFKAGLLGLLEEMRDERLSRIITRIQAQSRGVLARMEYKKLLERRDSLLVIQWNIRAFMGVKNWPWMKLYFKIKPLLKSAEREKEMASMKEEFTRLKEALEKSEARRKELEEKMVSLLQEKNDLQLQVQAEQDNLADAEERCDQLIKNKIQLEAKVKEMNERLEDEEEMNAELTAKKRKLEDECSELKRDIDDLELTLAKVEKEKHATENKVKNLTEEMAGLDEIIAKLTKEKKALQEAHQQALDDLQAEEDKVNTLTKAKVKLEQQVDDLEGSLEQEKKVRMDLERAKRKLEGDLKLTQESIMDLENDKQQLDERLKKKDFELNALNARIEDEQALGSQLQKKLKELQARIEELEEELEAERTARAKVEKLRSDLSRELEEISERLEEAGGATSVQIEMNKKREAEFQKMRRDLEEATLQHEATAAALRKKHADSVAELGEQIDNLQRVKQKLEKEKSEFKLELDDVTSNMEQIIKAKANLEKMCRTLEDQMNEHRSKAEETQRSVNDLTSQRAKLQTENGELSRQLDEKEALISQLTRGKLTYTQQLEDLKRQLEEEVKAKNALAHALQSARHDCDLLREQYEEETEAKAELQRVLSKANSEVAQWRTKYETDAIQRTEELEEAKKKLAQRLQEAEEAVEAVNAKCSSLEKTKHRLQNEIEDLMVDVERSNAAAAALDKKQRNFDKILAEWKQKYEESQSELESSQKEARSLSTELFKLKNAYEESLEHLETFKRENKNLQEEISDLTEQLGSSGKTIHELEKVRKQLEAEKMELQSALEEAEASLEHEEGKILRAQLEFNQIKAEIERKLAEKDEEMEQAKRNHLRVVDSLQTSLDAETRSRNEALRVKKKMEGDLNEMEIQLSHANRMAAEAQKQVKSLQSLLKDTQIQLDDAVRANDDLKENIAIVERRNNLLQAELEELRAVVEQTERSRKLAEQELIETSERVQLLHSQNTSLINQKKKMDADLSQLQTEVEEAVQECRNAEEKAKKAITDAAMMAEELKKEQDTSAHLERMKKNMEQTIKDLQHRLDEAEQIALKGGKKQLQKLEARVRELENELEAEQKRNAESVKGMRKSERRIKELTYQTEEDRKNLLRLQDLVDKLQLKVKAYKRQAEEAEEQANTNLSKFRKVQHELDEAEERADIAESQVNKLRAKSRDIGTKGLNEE
T1 sequence (P08590 whole entry partner): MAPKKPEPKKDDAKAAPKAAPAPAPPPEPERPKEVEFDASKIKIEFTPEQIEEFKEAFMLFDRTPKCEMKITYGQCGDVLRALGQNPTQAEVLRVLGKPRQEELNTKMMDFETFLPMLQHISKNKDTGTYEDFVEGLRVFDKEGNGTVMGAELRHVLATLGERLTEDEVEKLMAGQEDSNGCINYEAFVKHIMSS
T1 sequence (P10916 whole entry partner): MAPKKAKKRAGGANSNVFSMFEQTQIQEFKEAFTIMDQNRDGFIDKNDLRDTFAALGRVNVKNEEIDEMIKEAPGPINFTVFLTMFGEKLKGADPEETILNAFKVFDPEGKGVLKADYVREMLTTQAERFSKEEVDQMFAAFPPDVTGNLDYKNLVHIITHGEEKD

On to `Cc1ccc(S(=O)(=O)NCc2ccccc2)cc1` [N-benzyl-p-tolyl-sulfonamide (BTS), N-benzyl-p-tolyl-sulfonamide], for which, in assay [1], the “protection of muscles from pathological muscle derangement” value is given as “protect muscles from pathological muscle derangement”. Take `COc1ccccc1NC(=O)Cn1nc(-c2ccc(Cl)cc2)ccc1=O` [IIIc-23, 2-(3-(4-chlorophenyl)-6-oxopyridazin-1(6H)-yl)-N-(2-methoxyphenyl)acetamide]: the IC50 is under 10 µM in assay [2] (Table 4C) and over 100 µM in assay [3] (Table 5C). On to `CCNC(=O)Cn1nc(-c2ccc(OCC(F)F)cc2)ccc1=O` [II-7, 2-(3-(4-(2,2-difluoroethoxy)phenyl)-6-oxopyridazin-1(6H)-yl)-N-ethylacetamide], for which the IC50 is under 10 µM in assay [2] (Table 4B) and 10 to 100 µM in assay [3] (Table 5B). `O=C(Cn1nc(-c2ccc(OC(F)F)nc2)ccc1=O)NC1(c2ccccc2)CCC1` [Compound I-68, 2-(3-(6-(difluoromethoxy)pyridin-3-yl)-6-oxopyridazin-1(6H)-yl)-N-(1-phenylcyclobutyl)acetamide]: the figures for the IC50 in assay [2] (Table 4A) and in assay [3] (Table 5A) were under 10 µM and over 100 µM, respectively. As to `O=C(Cn1nc(-c2cnc(OCC(F)(F)F)nc2)ccc1=O)NC1CCC1` [Compound I-71, N-cyclobutyl-2-(6-oxo-3-(2-(2,2,2-trifluoroethoxy)pyrimidin-5-yl)pyridazin-1(6H)-yl)acetamide], the IC50 was under 10 µM in assay [2] (Table 4A) and over 100 µM in assay [3] (Table 5A). As for `O=C(Cn1nc(-c2ccc3c(c2)OCCO3)ccc1=O)Nc1ccccc1F` [IIIb-17, 2-(3-(2,3-dihydrobenzo[b][1,4]dioxin-6-yl)-6-oxopyridazin-1(6H)-yl)-N-(2-fluorophenyl)acetamide], the values for the IC50 in assay [2] (Table 4C) and in assay [3] (Table 5C) were under 10 µM and over 100 µM, respectively.

Take `CC(C)CNC(=O)Cn1nc(-c2ccc(Cl)cc2)ccc1=O` [IIIc-35, 2-(3-(4-chlorophenyl)-6-oxopyridazin-1(6H)-yl)-N-isobutylacetamide]: the IC50 in assay [2] (Table 4C) is 10 to 100 µM; in assay [3] (Table 5C) it was over 100 µM. Regarding `O=C(Cn1nc(-c2ccc(OCC(F)(F)F)cc2)ccc1=O)N1CCC1c1ccccc1` (centres unmarked) [II-23, 2-(2-oxo-2-(2-phenylazetidin-1-yl)ethyl)-6-(4-(2,2,2-trifluoroethoxy)phenyl)pyridazin-3(2H)-one], the half-inhibitory concentration (IC50) in assay [2] (Table 4B) was under 10 µM; in assay [3] (Table 5B), over 100 µM. In the case of `O=C(Cn1nc(-c2ccc(OC(F)F)cc2)ccc1=O)NCC(F)F` [II-15, N-(2,2-difluoroethyl)-2-(3-(4-(difluoromethoxy)phenyl)-6-oxopyridazin-1(6H)-yl)acetamide], the IC50 in assay [2] (Table 4B) is 10 to 100 µM; in assay [3] (Table 5B) it was over 100 µM.

Take `O=C(Cn1nc(-c2ccc(OCC(F)(F)F)cc2)ccc1=O)NCc1ccncc1Cl` [II-25, N-((3-chloropyridin-4-yl)methyl)-2-(6-oxo-3-(4-(2,2,2-trifluoroethoxy)phenyl)pyridazin-1(6H)-yl)acetamide]: the IC50 in assay [2] (Table 4B) and in assay [3] (Table 5B) was over 100 µM in each case. For the compound `CCNC(=O)Cn1nc(-c2ccc(N(C)C34CC(C3)C4)nc2)ccc1=O` [Compound I-64, 2-(3-(6-(bicyclo[1.1.1]pentan-1-yl(methyl)amino)pyridin-3-yl)-6-oxopyridazin-1(6H)-yl)-N-ethylacetamide], the IC50 in assay [2] (Table 4A) was under 10 µM; in assay [3] (Table 5A), 10 to 100 µM. With `COc1ccc(-c2ccc(=O)n(CC(=O)NCc3cccc(Cl)c3)n2)cc1` [IIIa-8, N-(3-chlorobenzyl)-2-(3-(4-methoxyphenyl)-6-oxopyridazin-1(6H)-yl)acetamide], the figures for the IC50 in assay [2] (Table 4C) and in assay [3] (Table 5C) were under 10 µM and over 100 µM, respectively. With `Cn1ccc2c(NC(=O)Cn3nc(-c4ccc(Cl)cc4)ccc3=O)cccc21` [IIIc-20, 2-(3-(4-chlorophenyl)-6-oxopyridazin-1(6H)-yl)-N-(1-methyl-1H-indol-4-yl)acetamide], the IC50 is under 10 µM in assay [2] (Table 4C) and 10 to 100 µM in assay [3] (Table 5C). Consider `COc1ccc(-c2ccc(=O)n(CC(=O)Nc3cc(Cl)ccc3Cl)n2)c(F)c1` [IIIb-13, N-(2,5-dichlorophenyl)-2-(3-(2-fluoro-4-methoxyphenyl)-6-oxopyridazin-1(6H)-yl)acetamide], for which the IC50 was under 10 µM in assay [2] (Table 4C) and over 100 µM in assay [3] (Table 5C).

With `CCOc1ccc(-c2ccc(=O)n(CC(=O)NC(C)C)n2)cc1` [IIIa-6, 2-(3-(4-ethoxyphenyl)-6-oxopyridazin-1(6H)-yl)-N-isopropylacetamide], the figures for the IC50 in assay [2] (Table 4C) and in assay [3] (Table 5C) were under 10 µM and over 100 µM, respectively.
